The results in this text go back to patent US8546381B2, “Bridged heterocyclic compounds and methods of use” (Medivation Technologies, Inc., priority 2008, dated 2013).

For orientation: inhibition means the relative decrease from the control value, in per cent.

Test [1] deals with T1, human recombinant histamine H1 receptor (Homo sapiens, UniProt P35367).
T1 construct: expressed in transfected cells; host or cells: CHO cells
The test can be described thus: Histamine H1 radioligand binding ([3H]Pyrilamine). The following applies: for inhibition at 1 µM: compound at 1 μM, inhibition of specific [3H]Pyrilamine binding, read-out: Histamine Binding (1 μM) H1, Percentage Inhibition. In outline:
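Membranes from CHO cells expressing human H1 receptor were incubated with 1.2 nM [3H]pyrilamine for 180 min at 25° C in Tris-HCl buffer pH 7.4. Non-specific binding defined with 1 μM pyrilamine; compounds tested at 1 μM or lower in 1% DMSO. Results are given as % inhibition of specific binding.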

Test [2] addresses T2, human recombinant histamine H2 receptor (Homo sapiens, UniProt P25021).
T2 construct: expressed in transfected cells; host or cells: CHO-K1 cells
The test can be described thus: Histamine H2 radioligand binding ([125I]Aminopotentidine). The following applies: compound at 1 μM; inhibition of specific [125I]Aminopotentidine binding; read-out: Histamine Binding (1 μM) H2, Percentage Inhibition. The gist of the method:
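CHO-K1 membranes expressing the receptor were incubated in 50 mM phosphate buffer, pH 7.4, with 0.1 nM [125I]aminopotentidine for 120 min at 25°C; 3 μM tiotidine defined non-specific binding.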

Test [3] has as its target T3, human recombinant adrenergic α1D receptor (Homo sapiens, UniProt P25100).
T3 construct: expressed in transfected cells; host or cells: HEK-293 cells
T3 sequence (P25100 1-572): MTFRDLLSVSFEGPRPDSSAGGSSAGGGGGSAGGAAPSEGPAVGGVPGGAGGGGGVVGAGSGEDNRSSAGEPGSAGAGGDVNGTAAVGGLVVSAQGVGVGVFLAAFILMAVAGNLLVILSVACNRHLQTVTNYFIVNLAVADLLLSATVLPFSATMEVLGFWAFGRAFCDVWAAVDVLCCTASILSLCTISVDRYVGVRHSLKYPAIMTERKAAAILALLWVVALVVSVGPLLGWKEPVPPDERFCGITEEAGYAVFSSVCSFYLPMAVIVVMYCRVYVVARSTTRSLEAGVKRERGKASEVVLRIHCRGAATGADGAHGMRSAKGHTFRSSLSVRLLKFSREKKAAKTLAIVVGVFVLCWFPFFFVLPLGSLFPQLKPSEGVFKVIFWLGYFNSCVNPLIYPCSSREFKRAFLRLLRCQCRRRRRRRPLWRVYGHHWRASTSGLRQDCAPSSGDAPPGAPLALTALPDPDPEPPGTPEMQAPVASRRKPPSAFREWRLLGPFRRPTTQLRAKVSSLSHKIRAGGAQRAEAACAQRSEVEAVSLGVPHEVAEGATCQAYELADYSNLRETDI
Put plainly: Adrenergic α1D radioligand binding ([3H]Prozosin). The following applies: for inhibition at 1 µM: read-out: Adrenergic α1D, inhibition of ligand binding (1 μM). As to the method:
To evaluate in radioligand binding assays the activity of compounds of the invention, human recombinant adrenergic α1D receptor expressed in human embryonic kidney (HEK-293) cells (Kenny, B. A. et al. Br. J. Pharmacol. 115(6):981, 1995) in a 50 mM Tris-HCl buffer, pH 7.4, was used. Compounds of invention were incubated with 0.6 nM [^3H]Prozosin for 60 minutes at 25° C. Non-specific binding was estimated in the presence of 10 μM phentolamine. Receptor proteins were filtered and washed, the filters were then counted to determine [^3H]Prozosin specifically bound. Compounds were screened at 1 μM or lower, using 1% DMSO as vehicle. Biochemical assay results are presented as the percent inhibition of specific binding in Table 3.

For test [4], the target named is T4, human recombinant adrenergic α2B receptor (Homo sapiens, UniProt P18089).
T4 construct: expressed in transfected cells; host or cells: CHO-K1 cells
T4 sequence (P18089 1-450): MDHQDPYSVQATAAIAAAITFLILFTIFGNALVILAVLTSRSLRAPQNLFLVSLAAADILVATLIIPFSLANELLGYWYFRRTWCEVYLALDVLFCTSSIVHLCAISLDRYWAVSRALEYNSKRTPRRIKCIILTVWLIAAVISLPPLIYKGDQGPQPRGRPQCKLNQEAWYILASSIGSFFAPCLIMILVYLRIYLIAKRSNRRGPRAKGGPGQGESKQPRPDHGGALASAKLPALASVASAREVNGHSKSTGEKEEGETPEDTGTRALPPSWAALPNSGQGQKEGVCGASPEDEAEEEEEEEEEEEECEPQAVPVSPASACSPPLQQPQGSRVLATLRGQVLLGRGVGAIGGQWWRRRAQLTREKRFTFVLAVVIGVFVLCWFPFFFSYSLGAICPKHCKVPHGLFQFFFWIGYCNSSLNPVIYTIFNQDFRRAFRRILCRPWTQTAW
Put plainly: Adrenergic α2B radioligand binding ([3H]Rauwolscine). To be noted: for inhibition at 1 µM: read-out: Adrenergic α2B, inhibition of ligand binding (1 μM). As to the method: To evaluate in radioligand binding assays the activity of compounds of the invention, human recombinant adrenergic α2B receptor expressed in Chinese hamster ovary (CHO-K1) cells (Uhlen S et al. Eur J. Pharmacol. 343(1):93, 1998) in a modified Tris-HCl buffer (50 mM Tris-HCl, pH 7.4, 12.5 mM MgCl2, 1 mM EDTA, 0.2% BSA) was used. Compounds of the invention were incubated with 2.5 nM [^3H]Rauwolscine for 60 minutes at 25° C. Non-specific binding was estimated in the presence of 10 μM Prozosin. Receptor proteins were filtered and washed, the filters were then counted to determine [^3H]Rauwolscine specifically bound. Compounds were screened at 1 μM or lower, using 1% DMSO as vehicle. Biochemical assay results are presented as the percent inhibition of specific binding in Table 3.

T2 sequence (P25021 whole entry): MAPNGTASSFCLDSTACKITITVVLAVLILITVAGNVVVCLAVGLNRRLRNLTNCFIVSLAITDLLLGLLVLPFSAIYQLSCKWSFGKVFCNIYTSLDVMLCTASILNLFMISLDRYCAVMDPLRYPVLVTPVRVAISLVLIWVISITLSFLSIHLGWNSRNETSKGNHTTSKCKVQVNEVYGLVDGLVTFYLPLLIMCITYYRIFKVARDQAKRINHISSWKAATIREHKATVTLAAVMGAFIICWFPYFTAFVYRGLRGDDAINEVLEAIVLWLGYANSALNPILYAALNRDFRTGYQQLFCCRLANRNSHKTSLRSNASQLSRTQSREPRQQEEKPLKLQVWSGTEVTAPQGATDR
T1 sequence (P35367 whole entry): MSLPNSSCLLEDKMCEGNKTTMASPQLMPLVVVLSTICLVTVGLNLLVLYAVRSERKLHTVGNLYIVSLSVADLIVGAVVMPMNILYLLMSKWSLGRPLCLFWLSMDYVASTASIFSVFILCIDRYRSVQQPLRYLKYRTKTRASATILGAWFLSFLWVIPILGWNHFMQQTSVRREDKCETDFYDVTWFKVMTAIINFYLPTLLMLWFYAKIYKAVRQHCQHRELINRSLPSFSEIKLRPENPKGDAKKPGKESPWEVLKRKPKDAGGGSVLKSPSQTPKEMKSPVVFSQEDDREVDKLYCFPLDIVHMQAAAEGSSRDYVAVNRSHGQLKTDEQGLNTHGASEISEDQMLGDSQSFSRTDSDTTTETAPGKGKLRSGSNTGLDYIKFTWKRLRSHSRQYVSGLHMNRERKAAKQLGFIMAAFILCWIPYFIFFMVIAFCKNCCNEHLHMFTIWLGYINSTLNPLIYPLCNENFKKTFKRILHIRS

Consider `CN1[C@H]2CC[C@@H]1c1c(n(CCc3ccc(F)cc3)c3ccc(F)cc13)C2` [Compound 95, (−)-(7R,10S)-2-Fluoro-5-(4-fluorophenethyl)-11-methyl-5,6,7,8,9,10-hexahydro-7,10-iminocyclohept[b]indole], for which the inhibition at 1 µM in test [1] worked out at 55%; in test [2] it was 8%; in test [3], 82%; in test [4], 36%.

For `CN1C2CCC1c1c(n(CCc3ccc(C(F)(F)F)nc3)c3cc(F)c(Cl)cc13)C2` (stereo not drawn) [Compound 77], the inhibition at 1 µM was determined as 32% in test [1], 7% in test [2], 37% in test [3] and 75% in test [4].

`CN1C2CCC1c1c(n(CCC(=O)O)c3ccc(Cl)cc13)C2` (stereo not drawn) [Compound 72]: the inhibition at 1 µM was 14% in test [1], 7% in test [2], -9% in test [3] and -8% in test [4].

`Cc1ccc2c(c1)c1c(n2CC(C)(O)c2ccc(Cl)cc2)CC2CCC1N2C` (stereo not drawn) [Compound 54]: the inhibition at 1 µM in test [1] was 63%; in test [2], 50%; in test [3], 25%; in test [4] it was 94%.

Consider `C/C(=C\n1c2c(c3cc(C)ccc31)C1CCC(C2)N1C)c1ccc(F)cc1` (stereo not drawn) [Compound 124], for which the inhibition at 1 µM came out at 31% in test [1], 79% in test [2], 67% in test [3] and 101% in test [4].

As for `Cc1ncc(CCn2c3c(c4cc(Cl)ccc42)C2CCC(C3)N2C)cn1` (stereo not drawn) [Compound 82], the inhibition at 1 µM is 44% in test [1], -8% in test [2], 40% in test [3] and 47% in test [4].

As to `CN1[C@@H]2CC[C@H]1c1c(n(CC(=O)N3CCCCC3)c3ccccc13)C2` [Compound 101], the inhibition at 1 µM was found to be 48% in test [1], 19% in test [2], 74% in test [3] and 76% in test [4].

As to `CN1C2CCC1c1c(n(CCc3ccc(F)cc3)c3ccc(Cl)cc13)C2` (stereo not drawn) [Compound 57], the inhibition at 1 µM in test [1] came out at 96%; in test [2], 37%; in test [3], 69%; in test [4], 98%.

With `CN1C2CCC1c1c(n(CCC(=O)N3CCOCC3)c3ccc(Cl)cc13)C2` (stereo not drawn) [Compound 13], the inhibition at 1 µM in test [1] was 28%; in test [2], -2%; in test [3], 8%; in test [4], 7%.

As to `CN1C2CCC1c1c(n(CCC(=O)N3CCNCC3)c3ccc(Cl)cc13)C2` (stereo not drawn) [Compound 9], the inhibition at 1 µM in test [1] was 6%; in test [2], 3%; in test [3] it was 9%; in test [4], -15%.

With `Cc1ccc2c(c1)c1c(n2CCc2ccccc2)CC2CCC1N2C` (stereo not drawn) [Compound 2], the inhibition at 0.01 µM in test [1] (compound at 10.0 nM, read-out: Histamine Binding H1, Percentage Inhibition (10.0 nM)) stood at 42%; in test [4] (10.0 nM, read-out: Adrenergic α2B, inhibition of ligand binding (10.0 nM)), 85%. In addition, the inhibition at 0.1 µM in test [1] (compound at 0.1 μM, read-out: Histamine Binding H1, Percentage Inhibition (0.1 μM)) worked out at 85%; in test [4] (0.1 μM, read-out: Adrenergic α2B, inhibition of ligand binding (0.1 μM)), 108%. The inhibition at 1 µM in test [1] turned out to be 99%; in test [2] it was 43%; in test [3], 94%; in test [4] it was 98%. In addition, the inhibition at 0.03 µM in test [3] (0.03 μM, read-out: Adrenergic α1D, inhibition of ligand binding (0.03 μM)) amounted to 44%. The inhibition at 0.3 µM in test [3] (0.3 μM, read-out: Adrenergic α1D, inhibition of ligand binding (0.3 μM)) amounted to 85%.

Consider `CN1[C@@H]2CC[C@H]1c1c(n(CC(C)(O)c3ccc(F)cc3)c3ccccc13)C2` (stereo partly drawn) [Compound 99], for which the inhibition at 1 µM in test [1] is 21%; in test [2] it was 6%; in test [3], 20%; in test [4], 92%.

Turning to `COc1ccc(/C(C)=C/n2c3c(c4cc(Cl)ccc42)C2CCC(C3)N2C)cc1F` (stereo not drawn) [Compound 136], the inhibition at 1 µM is 69% in test [1], 100% in test [2], 61% in test [3] and 87% in test [4].

Consider `C/C(=C\n1c2c(c3cc(C)ccc31)C1CCC(C2)N1C)c1ccc(Cl)cc1Cl` (stereo not drawn) [Compound 163], for which the inhibition at 1 µM came out at 72% in test [1], 66% in test [2], 53% in test [3] and 104% in test [4].

As to `CCOC(=O)CCn1c2c(c3cc(Cl)ccc31)C1CCC(C2)N1C` (stereo not drawn) [Compound 70, ethyl 3-(2-chloro-11-methyl-5,6,7,8,9,10-hexahydro-7,10-iminocyclohept[b]indol-5-yl)propanoate], the inhibition at 1 µM in test [1] came out at 65%; in test [2], 7%; in test [3], 26%; in test [4], 51%.

For `CN1C2CCC1c1c(n(CCc3ccc(Cl)cc3)c3ccc(Cl)cc13)C2` (stereo not drawn) [Compound 58], the inhibition at 1 µM in test [1] is 98%; in test [2] it was 52%; in test [3], 74%; in test [4], 99%.

As to `Cc1ccc2c(c1)c1c(n2CCc2ccc(C)nc2)CC2CCC1N2C` (stereo not drawn) [Compound 32], the inhibition at 1 µM was 94% in test [1], 13% in test [2], 53% in test [3] and 82% in test [4].

Regarding `CN1C2CCC1c1c(n(CCc3ccc(F)cc3)c3ccc(F)cc13)C2` (stereo not drawn) [Compound 35], the inhibition at 1 µM in test [1] was determined as 93%; in test [2], 27%; in test [3], 78%; in test [4] it was 110%.

On to `CN1C2CCC1c1c(n(CCc3cncc(Cl)c3)c3ccc(Cl)cc13)C2` (stereo not drawn) [Compound 87], for which the inhibition at 1 µM in test [1] came to 96%; in test [2], 7%; in test [3], 70%; in test [4], 98%.

Regarding `CN1C2CCC1c1c(n(CCC(N)=O)c3ccc(Cl)cc13)C2` (stereo not drawn) [Compound 73], the inhibition at 1 µM was 10% in test [1], -1% in test [2], 19% in test [3] and 73% in test [4].

On to `Cc1ccc(CCn2c3c(c4ccccc42)C2CCC(C3)N2C)cn1` (stereo not drawn) [Compound 92], for which the inhibition at 1 µM in test [1] stood at 54%; in test [2], 11%; in test [3], 8%; in test [4], 34%.
